Experimental data taken from patent publication US20050158320A1, “Combinations for the treatment of proliferative diseases” (priority 2003, published 2005).
Where two headings read alike, the source gives them in different places. One block for each molecule: values may come before it.

Columns and labels:
[1] = test system: Human colon adenocarcinoma cell line HCT116; assay: anti-proliferation assay (Alamar Blue); type: cell-based; conditions: read-out: percent inhibition (% I) of cell proliferation
Protocol: Cells were diluted in culture media such that 3000 cells were delivered in 20 μL of media into each assay well. […] Quantification, using an LJL Analyst AD reader (LJL Biosystems), was taken in the middle of the well with high attenuation, a 100 msec read time, an excitation filter at 530 nm, and an emission filter at 575 nm. For some experiments, quantification was performed using a Wallac Victor2 reader. Measurements were taken at the top of the well with stabilized energy lamp control; a 100 msec read time, an excitation filter at […], and an emission filter at 590 nm. No significant differences between plate readers were measured. The percent inhibition (% I) for each well was calculated using the following formula: % I=[(avg. untreated wells−treated well)/(avg. untreated wells)]×100 […] Negative inhibition values result from local variations in treated wells as compared to untreated wells.

PRL phosphatases = conditions: Pathak et al., Mol. Cancer Ther. 2002; cited from earlier work
[2] = target: T1, Recombinant HsEg5/KSP kinesin motor protein (Homo sapiens, UniProt P52732); assay: cell free motor assay (Kinesin ATPase End Point Biochem Kit, microtubule activated ATPase activity); type: biochemical
T1 sequence (P52732 1-1056): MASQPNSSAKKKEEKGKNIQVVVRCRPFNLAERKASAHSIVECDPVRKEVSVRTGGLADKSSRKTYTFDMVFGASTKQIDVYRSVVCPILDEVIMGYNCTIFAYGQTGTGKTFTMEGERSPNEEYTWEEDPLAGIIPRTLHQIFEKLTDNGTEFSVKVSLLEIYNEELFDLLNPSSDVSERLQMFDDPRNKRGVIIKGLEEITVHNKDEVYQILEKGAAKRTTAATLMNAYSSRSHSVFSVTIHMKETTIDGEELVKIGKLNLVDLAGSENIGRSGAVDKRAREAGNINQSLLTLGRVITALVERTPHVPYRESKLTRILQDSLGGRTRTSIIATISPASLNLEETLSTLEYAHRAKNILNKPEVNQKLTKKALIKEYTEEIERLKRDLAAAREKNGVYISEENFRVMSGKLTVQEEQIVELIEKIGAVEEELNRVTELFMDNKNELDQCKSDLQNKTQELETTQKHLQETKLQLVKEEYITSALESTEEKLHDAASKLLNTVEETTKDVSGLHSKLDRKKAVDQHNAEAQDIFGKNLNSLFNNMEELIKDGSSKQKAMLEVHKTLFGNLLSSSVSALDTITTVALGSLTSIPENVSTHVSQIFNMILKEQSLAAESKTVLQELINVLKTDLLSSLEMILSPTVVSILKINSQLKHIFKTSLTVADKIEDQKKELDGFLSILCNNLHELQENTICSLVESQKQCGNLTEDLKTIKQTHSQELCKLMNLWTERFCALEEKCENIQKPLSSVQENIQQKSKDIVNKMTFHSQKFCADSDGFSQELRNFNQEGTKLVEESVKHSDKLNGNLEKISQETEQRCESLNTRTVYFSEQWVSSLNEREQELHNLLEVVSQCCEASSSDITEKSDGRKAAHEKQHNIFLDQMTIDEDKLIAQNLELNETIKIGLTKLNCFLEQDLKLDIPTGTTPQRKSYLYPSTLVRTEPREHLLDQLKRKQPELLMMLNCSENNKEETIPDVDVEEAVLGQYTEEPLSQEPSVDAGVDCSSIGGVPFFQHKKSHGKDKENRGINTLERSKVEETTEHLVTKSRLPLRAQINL
Protocol: This assay measures organic phosphate (Pi) generated during microtubule activated ATPase activity of kinesin motor proteins. Recombinant HsEg5/KSP kinesin motor protein activity was assayed using the Kinesin ATPase End Point Biochem Kit (Cytoskeleton, catalog # BK053) following the manufacturer's instructions for amounts of reaction buffer, ATP and microtubules. The amount of HsEg5/KSP kinesin protein was optimized to 0.8 μg per reaction and included where indicated. Each assay was performed in a total reaction volume of 30 μL in a clear 96 well ½ area plate (Coming Inc., Costar and cat # 3697) and included the following conditions: • 1. a reaction blank consisting of reaction buffer and ATP only; • 2. negative control reactions containing: • a. microtubules and ATP without kinesin protein or • b. kinesin HsEg5/KSP and ATP without microtubules; and • 3. experimental reactions containing ATP, kinesin, and microtubules with or without compound at the indicated final concentrations.
Reactions were pre-incubated for 15 minutes at room temperature prior to the addition of ATP. After ATP addition, reactions were allowed to proceed for 10 minutes at room temperature prior to termination by the addition of 70 μL of CytoPhos Reagent. Following a last 10-minute incubation at room temperature, reactions were quantitated by reading the absorbance at 650 nm on a spectrophotometer (Beckman Instruments, Inc., Model DU 530). Raw absorbance values were corrected by subtracting the absorbance of the blank. Absorbance was converted into Pi concentration by comparison with a standard Pi curve. Percent inhibition was calculated from Pi concentration according to the following formula: % Inhibition=(untreated-treated)/untreated×100. The arithmetic mean was generated from percent inhibition of experimental replicates.

SMILES: N=C(N)c1ccc(OCCCCCOc2ccc(C(=N)N)cc2)cc1 [Pentamidine, pentamidine]
inhibition at 0.5 µM ([1]; HCT-116, chlorpromazine 0 μM, pentamidine 0.5 μM): 1.2%
inhibition at 1 µM ([1]; HCT-116, chlorpromazine 0 μM, pentamidine 1 μM): 1.9%
inhibition at 2 µM ([1]; HCT-116, chlorpromazine 0 μM, pentamidine 2 μM): 3.1%
inhibition at 4 µM ([1]; HCT-116, chlorpromazine 0 μM, pentamidine 4 μM): -0.77%
inhibition at 6 µM ([1]; HCT-116, chlorpromazine 0 μM, pentamidine 6 μM): 5%
inhibition at 9 µM ([1]; HCT-116, chlorpromazine 0 μM, pentamidine 9 μM): 9%
inhibition at 12 µM ([1]; HCT-116, chlorpromazine 0 μM, pentamidine 12 μM): 9.9%
inhibition at 15 µM ([1]; HCT-116, chlorpromazine 0 μM, pentamidine 15 μM): 16%
inhibition at 20 µM ([1]; HCT-116, chlorpromazine 0 μM, pentamidine 20 μM): 19%
PRL phosphatase inhibition (in words) (PRL phosphatases): inhibitor of the PRL phosphatases

mitotic kinesin inhibition (in words) ([2]; cell free motor assay): mitotic kinesin inhibitor
inhibition at 1 µM ([2]; chlorpromazine 1 μM, mean, n = 4, read-out: Percent inhibition of kinesin motor activity): -5.51%
inhibition at 2 µM ([2]; chlorpromazine 2 μM, mean, n = 4, read-out: Percent inhibition of kinesin motor activity): -11.2%
inhibition at 4 µM ([2]; chlorpromazine 4 μM, mean, n = 4, read-out: Percent inhibition of kinesin motor activity): 17.4%
inhibition at 8 µM ([2]; chlorpromazine 8 μM, mean, n = 4, read-out: Percent inhibition of kinesin motor activity): 52.9%
inhibition at 16 µM ([2]; chlorpromazine 16 μM, mean, n = 4, read-out: Percent inhibition of kinesin motor activity): 85.8%
inhibition at 32 µM ([2]; chlorpromazine 32 μM, mean, n = 4, read-out: Percent inhibition of kinesin motor activity): 97.8%
inhibition at 64 µM ([2]; chlorpromazine 64 μM, mean, n = 4, read-out: Percent inhibition of kinesin motor activity): 105%
SMILES: CN(C)CCCN1c2ccccc2Sc2ccc(Cl)cc21 [Chlorpromazine, chlorpromazine]
inhibition at 4 µM ([1]; HCT-116, chlorpromazine 4 μM, pentamidine 0 μM): 2.9%
inhibition at 6 µM ([1]; HCT-116, chlorpromazine 6 μM, pentamidine 0 μM): 0.11%
inhibition at 7.5 µM ([1]; HCT-116, chlorpromazine 7.5 μM, pentamidine 0 μM): 5.4%
inhibition at 9 µM ([1]; HCT-116, chlorpromazine 9 μM, pentamidine 0 μM): 4.1%
inhibition at 10 µM ([1]; HCT-116, chlorpromazine 10 μM, pentamidine 0 μM): 16%
inhibition at 12 µM ([1]; HCT-116, chlorpromazine 12 μM, pentamidine 0 μM): 22%
inhibition at 16 µM ([1]; HCT-116, chlorpromazine 16 μM, pentamidine 0 μM): 39%
inhibition at 20 µM ([1]; HCT-116, chlorpromazine 20 μM, pentamidine 0 μM): 56%
inhibition at 22 µM ([1]; HCT-116, chlorpromazine 22 μM, pentamidine 0 μM): 59%
